Patent US10183014B2, “Ocular formulations for drug-delivery and protection of the anterior segment of the eye” (PanOptica, Inc., priority 2014, dated 2019)
Like-named read-outs stand apart in the source and are kept apart here.

How the values were obtained:
[1] = Ocular pharmacokinetics of formulations, Example 20-4; format: in vivo, Dutch Belted rabbits; details: Day 5, 1 hr post dose
Description: The study design (Table 18-1) consisted of forty-nine (49) Dutch Belted rabbits, each receiving a 30 μL bilateral topical ocular dose.
Ocular sampling occurred one hour following the first daily dose on Day 5 for all groups. Whole blood samples using K2EDTA as an anticoagulant were collected from all animals on Day 5, 1 hour post dose. The whole blood was placed on ice until samples were spun in a centrifuge to separate the plasma. Aqueous humor, conjunctiva, cornea, central retina, peripheral retina, central choroid, and peripheral choroid samples were collected following necropsy. Samples were then frozen at −70° C. or lower. For all Groups 1-16, plasma, central retina, central choroid, and cornea samples were assayed for PAN-90806.

[2] = molecular target: ABL1 T315I (Homo sapiens, UniProt P00519, T315I); assay: In vitro inhibition of tyrosine kinases; format: biochemical; details: read-out: Mean % Inhibition at 1 μM Compound-I; 1 μM (568.9 ng/mL)
[3] = molecular target: MAP4K5 (KHS1) (Homo sapiens, UniProt Q9Y4K4); assay: In vitro inhibition of tyrosine kinases; format: biochemical; details: read-out: Mean % Inhibition at 1 μM Compound-I; 1 μM (568.9 ng/mL)
[4] = test system: pathologic angiogenesis; assay: Pathologic angiogenesis, rat growth plate model, systemic administration; format: in vivo

MAP4K5 (KHS1), sequence (Q9Y4K4 whole entry, species assumed): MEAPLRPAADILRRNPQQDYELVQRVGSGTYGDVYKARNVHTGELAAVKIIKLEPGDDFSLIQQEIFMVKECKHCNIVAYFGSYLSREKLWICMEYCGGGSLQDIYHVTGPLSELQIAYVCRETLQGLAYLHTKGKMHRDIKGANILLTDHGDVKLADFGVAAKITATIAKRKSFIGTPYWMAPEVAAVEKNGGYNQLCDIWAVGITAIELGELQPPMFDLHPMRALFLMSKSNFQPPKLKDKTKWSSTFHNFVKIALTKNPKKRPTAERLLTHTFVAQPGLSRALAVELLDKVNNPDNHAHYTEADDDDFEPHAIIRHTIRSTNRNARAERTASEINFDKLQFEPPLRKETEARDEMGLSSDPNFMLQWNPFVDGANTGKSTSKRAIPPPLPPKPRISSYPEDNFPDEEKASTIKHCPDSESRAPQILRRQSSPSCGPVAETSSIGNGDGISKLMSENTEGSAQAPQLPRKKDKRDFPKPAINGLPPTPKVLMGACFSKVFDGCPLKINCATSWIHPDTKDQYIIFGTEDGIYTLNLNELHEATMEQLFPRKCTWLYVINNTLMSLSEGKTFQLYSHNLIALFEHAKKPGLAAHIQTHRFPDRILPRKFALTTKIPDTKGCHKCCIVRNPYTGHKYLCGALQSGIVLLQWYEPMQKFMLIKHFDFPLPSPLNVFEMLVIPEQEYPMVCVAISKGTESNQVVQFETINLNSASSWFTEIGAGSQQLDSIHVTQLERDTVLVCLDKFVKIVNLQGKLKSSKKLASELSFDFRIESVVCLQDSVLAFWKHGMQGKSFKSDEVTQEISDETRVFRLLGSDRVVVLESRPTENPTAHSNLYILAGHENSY

Which results are given for Cl.NC(=O)c1c(OCc2c(F)cc(Br)cc2F)nsc1NC(=O)NCCCCN1CCCC1 [Compound-I, 3-[(4-bromo-2,6-difluorophenyl)methoxy]-5-[[[[4-(1-pyrrolidinyl)butyl]amino]carbonyl]amino]-4-isothiazolecarboxamide hydrochloride]?
concentration at 1 h ([1]; Dutch Belted, rabbit, plasma, topical, 1 mg/mL (30 μL per eye, bilateral), pH 6, Group 2: 1 mg/mL Salt, eye drops solution (control), pH 6, QD, read-out: Plasma concentration): 2.67 nM; concentration at 1 h ([1]; Dutch Belted, rabbit, plasma, topical, 4 mg/mL (30 μL per eye, bilateral), pH 6, Group 3: 4 mg/mL Salt, eye drops solution (control), pH 6, QD, read-out: Plasma concentration): 4.5 nM; concentration at 1 h ([1]; Dutch Belted, rabbit, plasma, topical, 30 μL per eye of 4 mg/mL suspension, Group 7: 4 mg/mL Salt suspension, PSD 30 μm/XL, TRIS 0.60%, glycerol 2%, HEC 0.3%, Tylox 0.04%, VitK3 1 μM, pH 6, QD, read-out: Plasma concentration): 5.56 nM; concentration at 1 h ([1]; Dutch Belted, rabbit, plasma, topical, 30 μL per eye of 6 mg/mL suspension, QD, pH 6, Group 6: 6 mg/mL Salt suspension, PSD 30 μm/XL, TRIS 0.60%, glycerol 2%, HEC 0.2%, HPMC 0.08%, VitK3 1 μM, pH 6, QD, read-out: Plasma concentration): 9.98 nM; Plasma concentration ([1]; Group 1: 0.3 mg/mL Salt, pH 6, BID, LLOQ = 0.00188 μM): <LLOQ; Central Choroid concentration ([1]; Group 1: 0.3 mg/mL Salt, pH 6, BID, LLOQ = 0.0563 μM): <LLOQ; concentration at 1 h ([1]; Group 7: 4 mg/mL Salt suspension, PSD 30 μm/XL, TRIS 0.60%, glycerol 2%, HEC 0.3%, Tylox 0.04%, VitK3 1 μM, pH 6, QD, read-out: Central Retina concentration): 69.7 nM; Plasma concentration ([1]; Group 8: 4 mg/mL Salt suspension, PSD 30 μm/XL, TRIS 0.60%, glycerol 2%, HEC 0.2%, Tylox 0.04%, VitK3 1 μM, pH 6, QD): 6.62 nM; concentration at 1 h ([1]; Group 8: 4 mg/mL Salt suspension, PSD 30 μm/XL, TRIS 0.60%, glycerol 2%, HEC 0.2%, Tylox 0.04%, VitK3 1 μM, pH 6, QD, read-out: Central Choroid concentration): 152 nM; concentration at 1 h ([1]; Group 8: 4 mg/mL Salt suspension, PSD 30 μm/XL, TRIS 0.60%, glycerol 2%, HEC 0.2%, Tylox 0.04%, VitK3 1 μM, pH 6, QD, read-out: Central Retina concentration): 90.1 nM; Plasma concentration ([1]; Group 9: 4 mg/mL Salt suspension, PSD 30 μm/XL, TRIS 0.60%, glycerol 2%, HEC 0.3%, Tylox 0.04%, VitK3 1 μM, pH 7, QD): 7.38 nM; concentration at 1 h ([1]; Group 9: 4 mg/mL Salt suspension, PSD 30 μm/XL, TRIS 0.60%, glycerol 2%, HEC 0.3%, Tylox 0.04%, VitK3 1 μM, pH 7, QD, read-out: Central Retina concentration): 102 nM; Plasma concentration ([1]; Group 10: 4 mg/mL Salt suspension, PSD 30 μm/XL, TRIS 0.60%, glycerol 2%, HEC 0.2%, Tylox 0.04%, VitK3 1 μM, pH 7, QD): 5.28 nM; concentration at 1 h ([1]; Group 10: 4 mg/mL Salt suspension, PSD 30 μm/XL, TRIS 0.60%, glycerol 2%, HEC 0.2%, Tylox 0.04%, VitK3 1 μM, pH 7, QD, read-out: Central Choroid concentration): 166 nM; concentration at 1 h ([1]; Group 10: 4 mg/mL Salt suspension, PSD 30 μm/XL, TRIS 0.60%, glycerol 2%, HEC 0.2%, Tylox 0.04%, VitK3 1 μM, pH 7, QD, read-out: Central Retina concentration): 50.2 nM; Plasma concentration ([1]; Group 11: 4 mg/mL Salt suspension, PSD 30 μm/XL, TRIS 0.60%, glycerol 2%, HEC 0.3%, HPMC 0.08%, VitK3 1 μM, pH 6, QD): 4.65 nM; concentration at 1 h ([1]; Group 11: 4 mg/mL Salt suspension, PSD 30 μm/XL, TRIS 0.60%, glycerol 2%, HEC 0.3%, HPMC 0.08%, VitK3 1 μM, pH 6, QD, read-out: Central Choroid concentration): 154 nM; concentration at 1 h ([1]; Group 11: 4 mg/mL Salt suspension, PSD 30 μm/XL, TRIS 0.60%, glycerol 2%, HEC 0.3%, HPMC 0.08%, VitK3 1 μM, pH 6, QD, read-out: Central Retina concentration): 79.6 nM; Plasma concentration ([1]; Group 12: 4 mg/mL Salt suspension, PSD 30 μm/XL, TRIS 0.60%, glycerol 2%, HEC 0.2%, HPMC 0.08%, VitK3 1 μM, pH 6, QD): 3.66 nM; concentration at 1 h ([1]; Group 12: 4 mg/mL Salt suspension, PSD 30 μm/XL, TRIS 0.60%, glycerol 2%, HEC 0.2%, HPMC 0.08%, VitK3 1 μM, pH 6, QD, read-out: Central Choroid concentration): 137 nM; concentration at 1 h ([1]; Group 12: 4 mg/mL Salt suspension, PSD 30 μm/XL, TRIS 0.60%, glycerol 2%, HEC 0.2%, HPMC 0.08%, VitK3 1 μM, pH 6, QD, read-out: Central Retina concentration): 49 nM; Plasma concentration ([1]; Group 13: 4 mg/mL Salt suspension, PSD Native (≈50) μm/XXL, TRIS 0.60%, glycerol 2%, HEC 0.2%, HPMC 0.08%, VitK3 1 μM, pH 6, QD): 5.24 nM; concentration at 1 h ([1]; Group 13: 4 mg/mL Salt suspension, PSD Native (≈50) μm/XXL, TRIS 0.60%, glycerol 2%, HEC 0.2%, HPMC 0.08%, VitK3 1 μM, pH 6, QD, read-out: Central Choroid concentration): 234 nM; concentration at 1 h ([1]; Group 13: 4 mg/mL Salt suspension, PSD Native (≈50) μm/XXL, TRIS 0.60%, glycerol 2%, HEC 0.2%, HPMC 0.08%, VitK3 1 μM, pH 6, QD, read-out: Central Retina concentration): 67.7 nM; Plasma concentration ([1]; Group 14: 4 mg/mL Salt suspension, PSD 3 μm/Large, TRIS 0.60%, glycerol 2%, HEC 0.2%, HPMC 0.08%, VitK3 1 μM, pH 6, QD): 4.99 nM; concentration at 1 h ([1]; Group 14: 4 mg/mL Salt suspension, PSD 3 μm/Large, TRIS 0.60%, glycerol 2%, HEC 0.2%, HPMC 0.08%, VitK3 1 μM, pH 6, QD, read-out: Central Choroid concentration): 241 nM; concentration at 1 h ([1]; Group 14: 4 mg/mL Salt suspension, PSD 3 μm/Large, TRIS 0.60%, glycerol 2%, HEC 0.2%, HPMC 0.08%, VitK3 1 μM, pH 6, QD, read-out: Central Retina concentration): 99.2 nM; Plasma concentration ([1]; Group 15: 4 mg/mL Salt suspension, PSD 30 μm/XL, TRIS 0.60%, glycerol 2%, HEC 0.3%, HPMC 0.08%, VitK3 1 μM, pH 7, QD): 3.25 nM; concentration at 1 h ([1]; Group 15: 4 mg/mL Salt suspension, PSD 30 μm/XL, TRIS 0.60%, glycerol 2%, HEC 0.3%, HPMC 0.08%, VitK3 1 μM, pH 7, QD, read-out: Central Choroid concentration): 200 nM; concentration at 1 h ([1]; Group 15: 4 mg/mL Salt suspension, PSD 30 μm/XL, TRIS 0.60%, glycerol 2%, HEC 0.3%, HPMC 0.08%, VitK3 1 μM, pH 7, QD, read-out: Central Retina concentration): 53.2 nM; inhibition at 1 µM [2]: 101%; inhibition at 1 µM [3]: 94%; Pathologic angiogenesis [4]: inhibit
